Results taken from article PMC12073402, “A Selective MAP3K1 Inhibitor Facilitates Discovery of NPM1 as a Member of the Network” (Molecules, 2025).

Experiments:
Assay in all cases: KiNativ kinome profiling in PANC-1 lysate
Assay type in all cases: binding
CDK4 = biological target: T1, CDK4 (Homo sapiens, UniProt P11802); details: Lys2
T1 construct: endogenous in cells; host or cells: PANC-1 cell lysate
Procedure, shortened: (§1)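 PANC-1 lysates were incubated with 5 μM inhibitor or DMSO, then labeled with a desthiobiotin-ATP acyl-phosphate probe that biotinylates conserved kinase lysines. Tryptic peptides were streptavidin-enriched and quantified by LC-MS/MS, reported as % change in MS signal from duplicate treated and duplicate control samples.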

TYK2 domain2 = biological target: T2, TYK2 domain2 (Homo sapiens, UniProt P29597); details: ATP Loop
T2 construct: endogenous in cells; host or cells: PANC-1 cell lysate
T2 sequence (P29597 whole entry, the tested form may be a part): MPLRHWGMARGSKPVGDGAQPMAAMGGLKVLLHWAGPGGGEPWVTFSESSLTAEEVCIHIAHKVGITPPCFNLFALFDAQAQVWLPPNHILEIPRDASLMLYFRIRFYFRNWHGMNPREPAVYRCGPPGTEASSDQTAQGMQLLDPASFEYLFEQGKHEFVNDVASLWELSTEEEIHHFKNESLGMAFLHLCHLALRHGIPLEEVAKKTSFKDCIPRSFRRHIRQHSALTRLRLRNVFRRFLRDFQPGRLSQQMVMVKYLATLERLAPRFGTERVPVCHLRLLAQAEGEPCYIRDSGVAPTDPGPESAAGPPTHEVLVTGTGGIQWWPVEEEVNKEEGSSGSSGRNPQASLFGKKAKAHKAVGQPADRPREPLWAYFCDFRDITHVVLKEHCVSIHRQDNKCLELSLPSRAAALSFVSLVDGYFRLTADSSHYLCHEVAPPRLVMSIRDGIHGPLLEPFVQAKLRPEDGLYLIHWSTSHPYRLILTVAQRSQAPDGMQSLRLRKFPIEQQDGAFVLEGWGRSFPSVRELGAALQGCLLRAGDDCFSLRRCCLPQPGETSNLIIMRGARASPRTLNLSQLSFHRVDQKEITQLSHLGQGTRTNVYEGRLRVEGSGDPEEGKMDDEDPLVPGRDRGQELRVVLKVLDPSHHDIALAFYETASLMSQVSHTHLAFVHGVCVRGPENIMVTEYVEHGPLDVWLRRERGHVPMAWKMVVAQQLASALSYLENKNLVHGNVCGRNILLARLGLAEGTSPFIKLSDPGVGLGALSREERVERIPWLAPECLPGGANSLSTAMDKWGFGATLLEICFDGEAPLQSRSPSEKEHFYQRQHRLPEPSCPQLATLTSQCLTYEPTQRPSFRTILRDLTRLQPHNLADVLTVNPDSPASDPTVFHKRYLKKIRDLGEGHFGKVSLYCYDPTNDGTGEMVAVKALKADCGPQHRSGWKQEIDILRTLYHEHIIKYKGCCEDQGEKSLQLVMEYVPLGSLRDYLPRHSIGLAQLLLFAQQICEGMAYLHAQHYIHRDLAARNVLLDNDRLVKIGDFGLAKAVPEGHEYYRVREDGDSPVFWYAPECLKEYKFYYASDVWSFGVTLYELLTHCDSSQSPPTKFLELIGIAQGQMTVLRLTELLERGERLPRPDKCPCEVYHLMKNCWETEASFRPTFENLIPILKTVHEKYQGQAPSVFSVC
Procedure, shortened: as §1

p38a = biological target: T3, p38a (Homo sapiens, UniProt Q16539)
T3 construct: endogenous in cells; host or cells: PANC-1 cell lysate
T3 sequence (Q16539 whole entry): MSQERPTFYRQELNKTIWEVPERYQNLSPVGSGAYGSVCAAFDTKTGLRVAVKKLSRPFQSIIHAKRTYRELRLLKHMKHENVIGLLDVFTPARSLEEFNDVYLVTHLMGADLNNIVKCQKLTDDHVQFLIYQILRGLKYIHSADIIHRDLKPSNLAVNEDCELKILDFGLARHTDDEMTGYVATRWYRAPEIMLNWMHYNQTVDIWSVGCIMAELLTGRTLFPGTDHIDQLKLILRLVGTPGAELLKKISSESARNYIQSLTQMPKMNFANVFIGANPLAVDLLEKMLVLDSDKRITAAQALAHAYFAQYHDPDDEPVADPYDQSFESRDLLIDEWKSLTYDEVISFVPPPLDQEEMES
Procedure, shortened: as §1

Wnk1, Wnk2 = details: 5 µM; ATP Loop; GSFKTVYK
Procedure, shortened: as §1

Erk5 = biological target: T4, Erk5 (Homo sapiens, UniProt Q13164); details: Lys2
T4 construct: endogenous in cells; host or cells: PANC-1 lysate
Procedure, shortened: as §1

PCTAIRE2 = biological target: T5, PCTAIRE2 (Homo sapiens, UniProt Q00537); details: Lys2
T5 construct: endogenous in cells; host or cells: PANC-1 cell lysate
Procedure, shortened: as §1

MAPKAPK3 = biological target: T6, MAPKAPK3 (Homo sapiens, UniProt Q16644)
T6 construct: endogenous in cells; host or cells: PANC-1 cell lysate
T6 sequence (Q16644 whole entry): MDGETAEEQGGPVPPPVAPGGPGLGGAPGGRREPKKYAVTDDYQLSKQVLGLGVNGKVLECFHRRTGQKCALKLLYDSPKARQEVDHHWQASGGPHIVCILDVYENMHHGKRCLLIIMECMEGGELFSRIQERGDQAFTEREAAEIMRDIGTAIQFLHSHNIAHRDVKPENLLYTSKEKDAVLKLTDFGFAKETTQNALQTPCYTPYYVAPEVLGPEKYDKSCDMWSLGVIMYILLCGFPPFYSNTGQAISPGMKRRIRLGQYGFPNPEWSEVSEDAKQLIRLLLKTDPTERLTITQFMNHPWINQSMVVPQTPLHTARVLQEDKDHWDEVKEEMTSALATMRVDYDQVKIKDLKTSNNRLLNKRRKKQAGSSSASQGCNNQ
Procedure, shortened: as §1

MAP2K6 = biological target: T7, MAP2K6 (Homo sapiens, UniProt P52564); details: for % Inhibition: 5 µM
T7 construct: endogenous in cells; host or cells: PANC-1 cell lysate
T7 sequence (P52564 1-334): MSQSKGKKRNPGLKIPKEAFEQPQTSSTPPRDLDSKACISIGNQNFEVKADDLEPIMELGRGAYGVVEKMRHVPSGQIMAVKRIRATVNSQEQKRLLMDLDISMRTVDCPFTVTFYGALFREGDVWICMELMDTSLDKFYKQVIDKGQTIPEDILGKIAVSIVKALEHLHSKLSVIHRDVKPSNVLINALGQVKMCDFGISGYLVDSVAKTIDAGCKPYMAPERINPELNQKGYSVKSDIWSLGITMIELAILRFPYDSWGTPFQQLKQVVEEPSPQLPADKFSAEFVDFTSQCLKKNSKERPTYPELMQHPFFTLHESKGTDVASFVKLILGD
Procedure, shortened: as §1

LYN = biological target: T8, LYN (Homo sapiens, UniProt P07948)
T8 construct: endogenous in cells; host or cells: PANC-1 cell lysate
T8 sequence (P07948 whole entry): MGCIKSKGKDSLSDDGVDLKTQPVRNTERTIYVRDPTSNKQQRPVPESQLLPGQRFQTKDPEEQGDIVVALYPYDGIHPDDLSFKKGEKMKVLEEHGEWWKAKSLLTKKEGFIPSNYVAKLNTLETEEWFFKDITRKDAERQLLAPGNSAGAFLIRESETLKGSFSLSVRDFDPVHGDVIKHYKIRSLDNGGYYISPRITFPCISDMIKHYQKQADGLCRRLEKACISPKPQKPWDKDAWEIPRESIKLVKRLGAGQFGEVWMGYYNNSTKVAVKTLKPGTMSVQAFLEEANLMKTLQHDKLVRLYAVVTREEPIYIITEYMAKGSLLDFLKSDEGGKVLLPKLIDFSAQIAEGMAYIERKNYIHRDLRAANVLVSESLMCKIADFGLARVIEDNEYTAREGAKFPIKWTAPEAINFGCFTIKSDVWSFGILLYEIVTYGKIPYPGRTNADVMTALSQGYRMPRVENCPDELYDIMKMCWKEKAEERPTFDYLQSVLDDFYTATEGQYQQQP
Procedure, shortened: as §1

TGFbR2 = biological target: T9, TGFbR2 (Homo sapiens, UniProt P37173); details: Lys2
T9 construct: endogenous in cells; host or cells: PANC-1 cell lysate
Procedure, shortened: as §1

BRAF, BRAF V600E = biological target: T10, BRAF, BRAF V600E (Homo sapiens, UniProt P15056); details: Lys2
T10 construct: endogenous in cells; host or cells: PANC-1 cell lysate
T10 sequence (P15056 2-766 V600E limits assumed): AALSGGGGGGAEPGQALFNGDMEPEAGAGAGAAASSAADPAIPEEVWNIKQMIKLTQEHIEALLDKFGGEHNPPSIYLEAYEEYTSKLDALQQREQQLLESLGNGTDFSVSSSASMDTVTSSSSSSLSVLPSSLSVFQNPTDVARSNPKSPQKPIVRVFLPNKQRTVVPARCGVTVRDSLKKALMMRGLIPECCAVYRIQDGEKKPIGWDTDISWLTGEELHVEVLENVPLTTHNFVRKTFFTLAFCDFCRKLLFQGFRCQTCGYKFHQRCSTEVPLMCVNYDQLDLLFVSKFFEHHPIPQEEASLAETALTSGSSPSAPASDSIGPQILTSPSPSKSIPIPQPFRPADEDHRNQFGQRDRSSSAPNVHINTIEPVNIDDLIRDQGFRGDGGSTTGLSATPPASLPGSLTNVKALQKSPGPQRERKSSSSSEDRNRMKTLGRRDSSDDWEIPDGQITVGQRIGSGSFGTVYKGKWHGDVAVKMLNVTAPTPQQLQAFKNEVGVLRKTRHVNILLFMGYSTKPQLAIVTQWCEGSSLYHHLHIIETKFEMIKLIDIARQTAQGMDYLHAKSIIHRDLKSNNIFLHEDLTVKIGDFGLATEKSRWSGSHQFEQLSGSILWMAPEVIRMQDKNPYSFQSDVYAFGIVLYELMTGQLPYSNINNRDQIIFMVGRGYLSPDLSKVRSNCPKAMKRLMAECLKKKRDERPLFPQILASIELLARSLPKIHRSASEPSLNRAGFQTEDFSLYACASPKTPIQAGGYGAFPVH
Procedure, shortened: as §1

DCAMKL2 = biological target: T11, DCAMKL2 (Homo sapiens, UniProt Q8N568); details: Lys2
T11 construct: endogenous in cells; host or cells: PANC-1 lysate
Procedure, shortened: as §1

PHKg2 = biological target: T12, PHKg2 (Homo sapiens, UniProt P15735); details: Lys1
T12 construct: endogenous in cells; host or cells: PANC-1 cell lysate
T12 sequence (P15735 whole entry): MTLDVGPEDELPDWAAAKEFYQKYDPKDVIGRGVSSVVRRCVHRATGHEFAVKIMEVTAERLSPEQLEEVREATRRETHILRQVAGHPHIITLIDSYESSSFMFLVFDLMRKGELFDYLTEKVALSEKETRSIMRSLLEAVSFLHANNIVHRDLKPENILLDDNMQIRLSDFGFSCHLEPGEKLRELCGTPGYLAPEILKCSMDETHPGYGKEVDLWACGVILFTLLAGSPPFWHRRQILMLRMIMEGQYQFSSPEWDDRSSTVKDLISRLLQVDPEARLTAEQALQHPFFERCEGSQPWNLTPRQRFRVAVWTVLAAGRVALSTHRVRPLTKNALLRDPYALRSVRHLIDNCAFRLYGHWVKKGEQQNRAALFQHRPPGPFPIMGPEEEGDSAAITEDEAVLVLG
Procedure, shortened: as §1

AurA = biological target: T13, AurA (Homo sapiens, UniProt O14965)
T13 construct: endogenous in cells; host or cells: PANC-1 cell lysate
T13 sequence (O14965 whole entry): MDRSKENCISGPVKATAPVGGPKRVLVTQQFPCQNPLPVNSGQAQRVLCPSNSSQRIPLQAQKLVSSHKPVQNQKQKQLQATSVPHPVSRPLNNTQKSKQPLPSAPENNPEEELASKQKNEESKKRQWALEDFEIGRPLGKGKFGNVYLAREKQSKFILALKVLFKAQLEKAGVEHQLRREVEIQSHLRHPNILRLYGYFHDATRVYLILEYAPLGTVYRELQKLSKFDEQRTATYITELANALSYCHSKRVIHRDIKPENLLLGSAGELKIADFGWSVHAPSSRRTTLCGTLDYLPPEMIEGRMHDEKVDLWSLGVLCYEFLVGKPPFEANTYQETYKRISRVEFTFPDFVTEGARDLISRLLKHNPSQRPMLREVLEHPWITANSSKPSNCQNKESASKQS
Procedure, shortened: as §1

IKKa = biological target: T14, IKKa (Homo sapiens, UniProt O15111); details: Lys2
T14 construct: we opted to conduct a kinome screen (KiNativ) in PANC-1 cell lysates; endogenous in cells; host or cells: PANC-1 cell lysate
Procedure, shortened: as §1

CHED = biological target: T15, CHED (Homo sapiens, UniProt Q14004); details: Lys2
T15 construct: endogenous in cells; host or cells: PANC-1 cell lysate
Procedure, shortened: as §1

TAK1 = biological target: T16, TAK1 (Homo sapiens, UniProt O43318); details: Lys2
T16 construct: endogenous in cells; host or cells: PANC-1 cell lysate
Procedure, shortened: as §1

RSK1 domain1 = biological target: T17, RSK1 domain1 (Homo sapiens, UniProt Q15418); details: ATP Loop
T17 construct: endogenous in cells; host or cells: PANC-1 cell lysate
Procedure, shortened: as §1

ATR = biological target: T18, ATR (Homo sapiens, UniProt Q13535); details: ATP
T18 construct: endogenous in cells; host or cells: PANC-1 cell lysate
Procedure, shortened: as §1

TBK1 = biological target: T19, TBK1 (Homo sapiens, UniProt Q9UHD2); details: Lys1
T19 construct: endogenous in cells; host or cells: PANC-1 cell lysate
Procedure, shortened: as §1

PAN3 = biological target: T20, PAN3 (Homo sapiens, UniProt Q58A45); details: ATP
T20 construct: endogenous in cells; host or cells: PANC-1 cell lysate
T20 sequence (Q58A45 whole entry): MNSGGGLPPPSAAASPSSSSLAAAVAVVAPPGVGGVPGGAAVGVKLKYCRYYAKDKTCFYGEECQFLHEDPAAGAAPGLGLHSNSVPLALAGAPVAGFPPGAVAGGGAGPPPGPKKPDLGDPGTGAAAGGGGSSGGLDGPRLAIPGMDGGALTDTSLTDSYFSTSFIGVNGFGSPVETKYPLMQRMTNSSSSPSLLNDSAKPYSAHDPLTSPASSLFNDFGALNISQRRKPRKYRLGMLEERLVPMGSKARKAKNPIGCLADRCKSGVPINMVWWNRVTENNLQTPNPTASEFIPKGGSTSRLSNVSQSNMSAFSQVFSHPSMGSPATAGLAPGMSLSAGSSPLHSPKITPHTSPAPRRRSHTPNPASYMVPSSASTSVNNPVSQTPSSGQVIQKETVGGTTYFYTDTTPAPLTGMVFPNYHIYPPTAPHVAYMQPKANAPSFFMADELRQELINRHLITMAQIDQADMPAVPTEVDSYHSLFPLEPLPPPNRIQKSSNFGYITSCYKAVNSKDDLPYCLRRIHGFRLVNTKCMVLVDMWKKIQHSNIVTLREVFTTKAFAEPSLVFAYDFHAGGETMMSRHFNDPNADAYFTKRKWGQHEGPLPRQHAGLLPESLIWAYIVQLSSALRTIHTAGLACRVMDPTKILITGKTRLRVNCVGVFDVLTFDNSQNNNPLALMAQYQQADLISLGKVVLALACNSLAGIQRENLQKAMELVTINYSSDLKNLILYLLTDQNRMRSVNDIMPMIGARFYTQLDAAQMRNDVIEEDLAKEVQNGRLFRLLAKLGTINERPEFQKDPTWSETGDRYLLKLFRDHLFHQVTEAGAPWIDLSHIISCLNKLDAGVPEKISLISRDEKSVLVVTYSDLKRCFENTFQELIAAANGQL
Procedure, shortened: as §1

PITSLRE = PITSLRE (Homo sapiens, UniProt P21127); details: Lys2
Procedure, shortened: as §1

Cn1cc(-c2cnc3ccc(NC(=O)Nc4ccc(F)c(C(F)(F)F)c4)cc3n2)cn1 [51-106, 1-(4-Fluoro-3-(trifluoromethyl)phenyl)-3-(3-(1-methyl-1H-pyrazol-4-yl)quinoxalin-6-yl)urea]
inhibition at 5 µM (CDK4): 3.2%
inhibition at 5 µM (TYK2 domain2): ≤ 0%
inhibition at 5 µM (p38a; Lys2, DLKPSNLAVNEDCELK): ≤ 0%
inhibition at 5 µM (p38a; Other, QELNKTIWEVPER): 7.5%
% Inhibition (Wnk1, Wnk2): NB (NB = No Binding (≤ 0))
inhibition at 5 µM (Erk5): 11.6%
inhibition at 5 µM (PCTAIRE2): 9.7%
% Inhibition (MAPKAPK3; 5 µM, Lys1, CALKLLYDSPK): NB (NB = No Binding (≤ 0))
inhibition at 5 µM (MAPKAPK3; ATP Loop, […]): ≤ 0%
% Inhibition (MAP2K6; Lys1, HVPSGQIMAVKR): NB (NB = No Binding (≤ 0))
% Inhibition (MAP2K6; Lys2, DVKPSNVLINALGQVK): NB (NB = No Binding (≤ 0))
inhibition at 5 µM (MAP2K6; ATP Loop, […]): ≤ 0%
inhibition at 5 µM (LYN; ATP Loop, EGAKFPIKWTAPEAINFGCFTIK): ≤ 0%
inhibition at 5 µM (LYN; Lys1, VAVKTLKPGTMSVQAFLEEANLMK): 1.8%
inhibition at 5 µM (TGFbR2): 8.9%
inhibition at 5 µM (BRAF, BRAF V600E): 0.5%
inhibition at 5 µM (DCAMKL2): ≤ 0%
inhibition at 5 µM (PHKg2): ≤ 0%
% Inhibition (AurA; 5 µM, Lys2, DIKPENLLLGSAGELK): NB (NB = No Binding (≤ 0))
inhibition at 5 µM (AurA; Lys1, […]): ≤ 0%
inhibition at 5 µM (IKKa): ≤ 0%
inhibition at 5 µM (CHED): ≤ 0%
inhibition at 5 µM (TAK1): ≤ 0%
inhibition at 5 µM (RSK1 domain1): ≤ 0%
inhibition at 5 µM (ATR): 2.2%
inhibition at 5 µM (TBK1): 5.7%
inhibition at 5 µM (PAN3; IQKSSNFGYITSCYK): ≤ 0%
inhibition at 5 µM (PAN3; VMDPTKILITGK): 4.4%
inhibition at 5 µM (PITSLRE): ≤ 0%
